The target of the assay is kynurenine 3-monooxygenase (KMO) (Homo sapiens, UniProt O15229). The experiment in a line: microdialysis (rapid equilibrium dialysis) with LC-MS on enriched HEK-KMO lysate; supported by cell lysate enzymatic inhibition, IC50 […]. In kind it is binding. (In equilibrium dialysis free small molecules cross a membrane that holds back macromolecules.)

For 1 molecule, Kd results are on record in article PMC6044753, “Diclofenac Identified as a Kynurenine 3-Monooxygenase Binder and Inhibitor by Molecular Similarity Techniques” (ACS Omega, 2018).

Molecules are shown by their SMILES.

kynurenine 3-monooxygenase (KMO), sequence (O15229 whole entry): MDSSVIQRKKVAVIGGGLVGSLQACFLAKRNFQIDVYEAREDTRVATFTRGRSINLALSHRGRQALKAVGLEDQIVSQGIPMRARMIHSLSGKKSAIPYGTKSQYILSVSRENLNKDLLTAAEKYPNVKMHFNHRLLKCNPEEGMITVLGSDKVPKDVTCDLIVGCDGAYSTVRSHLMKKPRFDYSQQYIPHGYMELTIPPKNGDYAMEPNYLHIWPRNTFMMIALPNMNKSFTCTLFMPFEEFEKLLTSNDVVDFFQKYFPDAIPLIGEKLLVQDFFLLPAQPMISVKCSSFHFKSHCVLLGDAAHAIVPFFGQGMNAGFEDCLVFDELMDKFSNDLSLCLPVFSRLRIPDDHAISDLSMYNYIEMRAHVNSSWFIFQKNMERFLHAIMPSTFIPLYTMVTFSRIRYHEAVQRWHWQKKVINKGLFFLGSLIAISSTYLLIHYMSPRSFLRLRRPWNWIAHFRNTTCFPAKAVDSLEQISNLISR

As a reminder, the Kd is the equilibrium constant for the complex coming apart. Read a low Kd as higher affinity. Consider `O=C(O)Cc1ccccc1Nc1c(Cl)cccc1Cl` [diclofenac], for which binding was put at a Kd of 64.8 ± 29.5 µM.
